# In patent publication US12702692B2, “Therapeutic use of calcium-activated chloride channel peptide activator” (CENTRE NATIONAL DE LA RECHERCHE SCIENTIFIQUE, priority 2020, dated 2026):
# How the values were obtained:
# TMEM16A = target: T1, TMEM16A (Mus musculus, UniProt Q8BHY3); assay: Whole-cell patch-clamp of HEK293T cells expressing TMEM16A; assay type: cell-based
# T1 construct: expressed in transfected cells; host or cells: HEK293T
# T1 sequence (Q8BHY3 1-960): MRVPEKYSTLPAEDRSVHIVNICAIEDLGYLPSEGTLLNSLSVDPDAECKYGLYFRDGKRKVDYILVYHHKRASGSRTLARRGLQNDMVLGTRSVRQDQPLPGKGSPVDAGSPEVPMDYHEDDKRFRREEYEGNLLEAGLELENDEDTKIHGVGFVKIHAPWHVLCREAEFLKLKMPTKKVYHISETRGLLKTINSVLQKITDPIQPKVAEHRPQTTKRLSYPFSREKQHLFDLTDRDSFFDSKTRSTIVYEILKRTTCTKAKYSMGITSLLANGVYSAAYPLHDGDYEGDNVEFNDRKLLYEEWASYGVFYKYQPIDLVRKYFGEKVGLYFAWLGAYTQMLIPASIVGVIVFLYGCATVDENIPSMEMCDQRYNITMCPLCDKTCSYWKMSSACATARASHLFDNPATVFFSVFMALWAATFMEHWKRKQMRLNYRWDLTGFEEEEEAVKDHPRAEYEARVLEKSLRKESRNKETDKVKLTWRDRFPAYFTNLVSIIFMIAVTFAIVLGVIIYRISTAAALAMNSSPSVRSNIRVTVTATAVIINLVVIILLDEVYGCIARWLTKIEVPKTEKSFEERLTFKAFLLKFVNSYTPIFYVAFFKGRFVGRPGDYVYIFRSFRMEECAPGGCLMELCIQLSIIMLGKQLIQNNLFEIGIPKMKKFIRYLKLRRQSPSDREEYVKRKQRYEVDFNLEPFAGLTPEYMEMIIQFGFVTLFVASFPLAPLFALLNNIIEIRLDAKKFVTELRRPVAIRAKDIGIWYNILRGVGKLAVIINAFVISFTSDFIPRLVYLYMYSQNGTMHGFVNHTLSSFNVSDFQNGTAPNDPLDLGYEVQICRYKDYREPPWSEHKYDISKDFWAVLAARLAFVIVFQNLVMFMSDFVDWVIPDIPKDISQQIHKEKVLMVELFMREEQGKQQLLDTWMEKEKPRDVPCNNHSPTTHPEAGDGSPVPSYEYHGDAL
# Description: mTMEM16A (kindly provided by Dr Lily Yeh Jan) and hKCNE1 cDNA were subcloned in pIRES2eGFP, pXOOM, pcDNA3.1, pCDNA3.1-GFP and pCMV-HA vectors. Truncations and mutations on KCNE1 were generated by PCR. For SiMPull experiments, HA-tags were fused to the N-terminus of sequences, whereas GFP-tags were fused to C-terminal part. HEK293T and PCT cells were transiently co-transfected using Lipofectamine 2000 or the calcium phosphate method with a total amount of 1 and 3.5 μg of DNA, respectively, and seeded on 18 mm diameter coverslips. HEK cells were maintained in DMEM with 5% FBS on poly-L-lysine-coated glass coverslips in 12 well plates. PCT cells from wild type and knock-out mice were microdissected as described previously and maintained in F12 (Gibco) on collagen-coated glass coverslips.
# HEK293T and PCT cell electrophysiology was performed 24-48 h after transfection. For whole-cell patch-clamp experiments cells were recorded in a bath solution containing (in mM) 150 NaCl, 5 KCl, 2 CaCl2 and 10 HEPES, pH 7.4 and 0.05% BSA. The glass pipettes (2-5 MΩ of resistance) were filled with (in mM) 5 NaCl, 135 CsCl, 2 MgCl2, 5 EGTA, 10 HEPES, pH 7.3. Cells were recorded either after incubation of 30 min with the peptide or during perfusion with the peptide. Total calcium concentration was calculated with Maxchelator (maxchelator.standford.edu) for a temperature of 20° C. HEK293T and PCT cells were recorded at room temperature in voltage-clamp mode using an Axopatch 200A (Molecular Devices) amplifier. Signals were filtered at 10 kHz and digitalized at 20 kHz. Whole-cell currents were elicited by voltage-ramps (from −100 to +100 mV, 1 s) and I-V stimulation pulses (from −100 to +100 mV in 20 mV increments, 1 s each pulse), holding the cells at −80 mV. Current densities were measured at +100 mV. Cell recordings, data acquisition and analysis of electrophysiology experiments were performed using pClamp software (Molecular Devices).
# [1] = Acute effect on tear fluid secretion (tearing rate, phenol red thread) in naive rats; assay type: in vivo, Sprague-Dawley rats
# Description: Sprague-Dawley rats (males, around 200 g) were purchased from Charles River and adapted one week before processing the experiment. Two-three rats per cage were housed in a controlled environment of 12 hours intervals of light/dark cycles and free access to food and water. Animal experiments were approved by the Animal Care and Use Committee of the University of Barcelona (CEEA) and the […] de Territori i Sostenibilitat of Generalitat de Catalunya, Catalonia, Spain (319/19; 10935) and followed the ethical guidelines of the International Association for the Study of Pain. […] (also named Nter 13 peptide or […] NO: 2)) and scramble ([…] NO: 7)) peptides were purchased from GenScript Biotech (Leiden, Netherlands) and provided by CNRS. Both peptides were dissolved in Phosphate Buffered Saline (PBS) at 10 mM and used for topical ocular application (5 ul per eye). Tear fluid secretion (tearing rate) was measured using phenol red threads (Zone-Quick, Menicon, Nagoya, Japan) placed on the lower eyelid for 30 s without topical anesthesia (Trost, 2007; Acosta 2013). Tearing rate was determined with an accuracy of ±0.5 mm by measurement of the length of the red portion of the thread. After habituation of the animals, basal tearing rate was measured in both eyes before any topical application of peptides. Then, animals were divided in different groups and a solution containing vehicle (PBS), amiloride (1 mM), peptide N13 or peptide scramble was topically applied to the ocular surface (5 μl) and tearing rate was measured at 1, 3, 6, 12 and 24 h. Tearing rate measurements were done blind to the treatment received by the animals. Data are presented as mean±standard error of the mean (SEM). Statistical differences between different sets of data were assessed by performing repeated measured One-way ANOVA plus Bonferroni's post-tests (each data point in an experimental group vs. basal values) or repeated measured Two-way ANOVA plus Bonferroni's post-tests (each data point in […] group vs. Scramble or Vehicle group; or point in […] or amiloride groups vs. Vehicle group) using Prism 9 (GraphPad Software, San Diego, CA). The significance level was set at p<0.05 in all statistical analyses.
sequence,measurement,setting,value
LARRSPRSSDGKL (SEQ ID NO: 2) (amino acid residues between positions 30 to 42 of the human KCNE1 protein sequence) [N13ter],current density elicited by peptide at +100 mV,"TMEM16A; 100 μM peptide, HEK293T cells expressing TMEM16A alone",15.48±3.25 pA/pF
same,potency on TMEM16A compared with rat N13 peptide,"TMEM16A; 100 μM, HEK293T expressing TMEM16A and Xenopus oocytes (FIG. 9)",more potent
same,effect of peptide application on TMEM16A current,"TMEM16A; HEK293T cells expressing TMEM16A alone, 100 μM for Nter13, S38G and rat peptides",induces TMEM16A current properties
same,tearing rate at 6 h,"[1]; 10 mM topical, 5 μl per eye, n=20 eyes, basal 7.65±0.49 mm (N13ter)",9.65±0.57 mm
same,tearing rate at 12 h,"[1]; 10 mM topical, 5 μl per eye, n=20 eyes, basal 7.65±0.49 mm (N13ter), 8.10±0.54 mm (Scramble)",8.85±0.73 mm
same,tearing rate at 12 h,"[1]; N13ter 10 mM topical, vehicle/amiloride study, n=12 eyes, basal 4.53±0.43",6.66±0.64 mm
same,time after application at which the enhancing effect becomes significant,[1]; N13ter 10 mM vs scramble peptide,6 to 12 h
same,effect on tearing rate compared with Vehicle,"[1]; N13ter 10 mM, amiloride 1 mM, vehicle PBS",significant increase in tearing rate
same,effect on tearing rate,"[1]; N13ter vs Scramble study, both 10 mM topical",small but significant increase in tearing rate
same,"effect on tearing rate vs vehicle, pooled data","[1]; all N13ter 10 mM studies pooled, n=32 eyes, normalized to basal","statistically significant effect at 1, 3, 6, 12 and 24 h, obtaining the maximal increase at 6 and 12 h"
